{"source": "PubChem BioAssay AID2060626", "about": "(Molecular Pharmacology Branch, DTP, NCI, 2025);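 note: luminescence signal used as surrogate for viable cell amount; viability measured after seven days of drug exposure; 100% = DMSO vehicle control wells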", "data": [{"tested_on": "168753-222-R-J1-PDC complex spheroid viability", "experiment": "Anticancer human tumor 168753-222-R-J1-PDC patient-derived bladder carcinoma cell line growth inhibition [CLK]", "conditions": "second compound 0.316 µM; first compound 0.316 µM; active compounds read low", "summary_of_the_method": "(§1)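 Multi-cell-type spheroids combined patient-derived tumor cells with HUVEC endothelial cells and human mesenchymal stem cells. Paired agents were dosed in half-log steps down from about clinical Cmax, or from 10 microM where Cmax was unknown.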", "units": {"viability, T/C": "%"}, "values": [{"smiles": "CC(Nc1ccc2c(c1)OCCn1cc(N3C(=O)OCC3C(F)F)nc1-2)C(N)=O", "note": "(stereo unspecified) + CNC(=O)c1ccc(Nc2nc(OC3CCCC3)c3c(-c4ccc5nc(C)oc5c4)c[nH]c3n2)c(OC)c1", "viability, T/C": 15}, {"smiles": "COc1c(OCCCN2CCOCC2)ccc2c3n(c(=NC(=O)c4cnc(N)nc4)nc12)CCN3", "note": "+ CNC(=O)c1ccc(Nc2nc(OC3CCCC3)c3c(-c4ccc5nc(C)oc5c4)c[nH]c3n2)c(OC)c1", "viability, T/C": 4.55}]}, {"tested_on": "168753-222-R-J1-PDC complex spheroid viability", "experiment": "Anticancer human tumor 168753-222-R-J1-PDC cell line growth inhibition [CLK]", "conditions": "second compound 0.316 µM; first compound 1 µM; active compounds read low", "summary_of_the_method": "as §1", "units": {"viability, T/C": "%"}, "values": [{"smiles": "C#Cc1c(F)ccc2cc(O)cc(-c3ncc4c(N5CC6CCC(C5)N6)nc(OCC56CCCN5CC(F)C6)nc4c3F)c12", "note": "(stereo unspecified) + CNC(=O)c1ccc(Nc2nc(OC3CCCC3)c3c(-c4ccc5nc(C)oc5c4)c[nH]c3n2)c(OC)c1", "viability, T/C": 78.2}, {"smiles": "C=C(F)C(=O)N1CCN(c2nc(OCC3CCCN3C)nc3c2CCN(c2cccc4cccc(Cl)c24)C3)CC1CC#N", "note": "(stereo unspecified) + CNC(=O)c1ccc(Nc2nc(OC3CCCC3)c3c(-c4ccc5nc(C)oc5c4)c[nH]c3n2)c(OC)c1", "viability, T/C": 74.3}, {"smiles": "CC(CO)NC(=O)c1cc(-c2ccc(Cl)cc2)nn(-c2cnn(C)c2)c1=O", "note": "(stereo unspecified) + CNC(=O)c1ccc(Nc2nc(OC3CCCC3)c3c(-c4ccc5nc(C)oc5c4)c[nH]c3n2)c(OC)c1", "viability, T/C": 77.2}, {"smiles": "CC(Nc1ccc2c(c1)OCCn1cc(N3C(=O)OCC3C(F)F)nc1-2)C(N)=O", "note": "(stereo unspecified) + CNC(=O)c1ccc(Nc2nc(OC3CCCC3)c3c(-c4ccc5nc(C)oc5c4)c[nH]c3n2)c(OC)c1", "viability, T/C": 9.68}, {"smiles": "COc1c(OCCCN2CCOCC2)ccc2c3n(c(=NC(=O)c4cnc(N)nc4)nc12)CCN3", "note": "+ CNC(=O)c1ccc(Nc2nc(OC3CCCC3)c3c(-c4ccc5nc(C)oc5c4)c[nH]c3n2)c(OC)c1", "viability, T/C": 0.36}]}, {"tested_on": "168753-222-R-J1-PDC complex spheroid viability", "experiment": "Anticancer human tumor 168753-222-R-J1-PDC cell line growth inhibition [CLK]", "conditions": "second compound 0.316 µM; first compound 3.16 µM; active compounds read low", "summary_of_the_method": "as §1", "units": {"viability, T/C": "%"}, "values": [{"smiles": "C#Cc1c(F)ccc2cc(O)cc(-c3ncc4c(N5CC6CCC(C5)N6)nc(OCC56CCCN5CC(F)C6)nc4c3F)c12", "note": "(stereo unspecified) + CNC(=O)c1ccc(Nc2nc(OC3CCCC3)c3c(-c4ccc5nc(C)oc5c4)c[nH]c3n2)c(OC)c1", "viability, T/C": 67.9}, {"smiles": "C=C(F)C(=O)N1CCN(c2nc(OCC3CCCN3C)nc3c2CCN(c2cccc4cccc(Cl)c24)C3)CC1CC#N", "note": "(stereo unspecified) + CNC(=O)c1ccc(Nc2nc(OC3CCCC3)c3c(-c4ccc5nc(C)oc5c4)c[nH]c3n2)c(OC)c1", "viability, T/C": 90}, {"smiles": "CC(CO)NC(=O)c1cc(-c2ccc(Cl)cc2)nn(-c2cnn(C)c2)c1=O", "note": "(stereo unspecified) + CNC(=O)c1ccc(Nc2nc(OC3CCCC3)c3c(-c4ccc5nc(C)oc5c4)c[nH]c3n2)c(OC)c1", "viability, T/C": 80.5}, {"smiles": "CC(Nc1ccc2c(c1)OCCn1cc(N3C(=O)OCC3C(F)F)nc1-2)C(N)=O", "note": "(stereo unspecified) + CNC(=O)c1ccc(Nc2nc(OC3CCCC3)c3c(-c4ccc5nc(C)oc5c4)c[nH]c3n2)c(OC)c1", "viability, T/C": 9.36}]}, {"tested_on": "168753-222-R-J1-PDC complex spheroid viability", "experiment": "Anticancer human tumor 168753-222-R-J1-PDC cell line growth inhibition [CLK]", "conditions": "second compound 0.316 µM; first compound 10 µM; active compounds read low", "summary_of_the_method": "as §1", "units": {"viability, T/C": "%"}, "values": [{"smiles": "C#Cc1c(F)ccc2cc(O)cc(-c3ncc4c(N5CC6CCC(C5)N6)nc(OCC56CCCN5CC(F)C6)nc4c3F)c12", "note": "(stereo unspecified) + CNC(=O)c1ccc(Nc2nc(OC3CCCC3)c3c(-c4ccc5nc(C)oc5c4)c[nH]c3n2)c(OC)c1", "viability, T/C": 25.6}, {"smiles": "C=C(F)C(=O)N1CCN(c2nc(OCC3CCCN3C)nc3c2CCN(c2cccc4cccc(Cl)c24)C3)CC1CC#N", "note": "(stereo unspecified) + CNC(=O)c1ccc(Nc2nc(OC3CCCC3)c3c(-c4ccc5nc(C)oc5c4)c[nH]c3n2)c(OC)c1", "viability, T/C": 43.1}, {"smiles": "CC(CO)NC(=O)c1cc(-c2ccc(Cl)cc2)nn(-c2cnn(C)c2)c1=O", "note": "(stereo unspecified) + CNC(=O)c1ccc(Nc2nc(OC3CCCC3)c3c(-c4ccc5nc(C)oc5c4)c[nH]c3n2)c(OC)c1", "viability, T/C": 66.8}, {"smiles": "CC(Nc1ccc2c(c1)OCCn1cc(N3C(=O)OCC3C(F)F)nc1-2)C(N)=O", "note": "(stereo unspecified) + CNC(=O)c1ccc(Nc2nc(OC3CCCC3)c3c(-c4ccc5nc(C)oc5c4)c[nH]c3n2)c(OC)c1", "viability, T/C": 9.19}]}, {"tested_on": "168753-222-R-J1-PDC complex spheroid viability", "experiment": "Anticancer human tumor 168753-222-R-J1-PDC cell line growth inhibition [CLK]", "conditions": "second compound 1 µM; first compound 0.00316 µM; active compounds read low", "summary_of_the_method": "as §1", "units": {"viability, T/C": "%"}, "values": [{"smiles": "COc1c(OCCCN2CCOCC2)ccc2c3n(c(=NC(=O)c4cnc(N)nc4)nc12)CCN3", "note": "+ CNC(=O)c1ccc(Nc2nc(OC3CCCC3)c3c(-c4ccc5nc(C)oc5c4)c[nH]c3n2)c(OC)c1", "viability, T/C": 25}]}, {"tested_on": "168753-222-R-J1-PDC complex spheroid viability", "experiment": "Anticancer human tumor 168753-222-R-J1-PDC cell line growth inhibition [CLK]", "conditions": "second compound 1 µM; first compound 0.01 µM; active compounds read low", "summary_of_the_method": "as §1", "units": {"viability, T/C": "%"}, "values": [{"smiles": "COc1c(OCCCN2CCOCC2)ccc2c3n(c(=NC(=O)c4cnc(N)nc4)nc12)CCN3", "note": "+ CNC(=O)c1ccc(Nc2nc(OC3CCCC3)c3c(-c4ccc5nc(C)oc5c4)c[nH]c3n2)c(OC)c1", "viability, T/C": 16.4}]}, {"tested_on": "168753-222-R-J1-PDC complex spheroid viability", "experiment": "Anticancer human tumor 168753-222-R-J1-PDC cell line growth inhibition [CLK]", "conditions": "second compound 1 µM; first compound 0.0316 µM; active compounds read low", "summary_of_the_method": "as §1", "units": {"viability, T/C": "%"}, "values": [{"smiles": "C#Cc1c(F)ccc2cc(O)cc(-c3ncc4c(N5CC6CCC(C5)N6)nc(OCC56CCCN5CC(F)C6)nc4c3F)c12", "note": "(stereo unspecified) + CNC(=O)c1ccc(Nc2nc(OC3CCCC3)c3c(-c4ccc5nc(C)oc5c4)c[nH]c3n2)c(OC)c1", "viability, T/C": 42.3}, {"smiles": "C=C(F)C(=O)N1CCN(c2nc(OCC3CCCN3C)nc3c2CCN(c2cccc4cccc(Cl)c24)C3)CC1CC#N", "note": "(stereo unspecified) + CNC(=O)c1ccc(Nc2nc(OC3CCCC3)c3c(-c4ccc5nc(C)oc5c4)c[nH]c3n2)c(OC)c1", "viability, T/C": 50.1}, {"smiles": "CC(CO)NC(=O)c1cc(-c2ccc(Cl)cc2)nn(-c2cnn(C)c2)c1=O", "note": "(stereo unspecified) + CNC(=O)c1ccc(Nc2nc(OC3CCCC3)c3c(-c4ccc5nc(C)oc5c4)c[nH]c3n2)c(OC)c1", "viability, T/C": 48.9}, {"smiles": "CC(Nc1ccc2c(c1)OCCn1cc(N3C(=O)OCC3C(F)F)nc1-2)C(N)=O", "note": "(stereo unspecified) + CNC(=O)c1ccc(Nc2nc(OC3CCCC3)c3c(-c4ccc5nc(C)oc5c4)c[nH]c3n2)c(OC)c1", "viability, T/C": 24.3}, {"smiles": "COc1c(OCCCN2CCOCC2)ccc2c3n(c(=NC(=O)c4cnc(N)nc4)nc12)CCN3", "note": "+ CNC(=O)c1ccc(Nc2nc(OC3CCCC3)c3c(-c4ccc5nc(C)oc5c4)c[nH]c3n2)c(OC)c1", "viability, T/C": 3.59}]}, {"tested_on": "168753-222-R-J1-PDC complex spheroid viability", "experiment": "Anticancer human tumor 168753-222-R-J1-PDC cell line growth inhibition [CLK]", "conditions": "second compound 1 µM; first compound 0.1 µM; active compounds read low", "summary_of_the_method": "as §1", "units": {"viability, T/C": "%"}, "values": [{"smiles": "C#Cc1c(F)ccc2cc(O)cc(-c3ncc4c(N5CC6CCC(C5)N6)nc(OCC56CCCN5CC(F)C6)nc4c3F)c12", "note": "(stereo unspecified) + CNC(=O)c1ccc(Nc2nc(OC3CCCC3)c3c(-c4ccc5nc(C)oc5c4)c[nH]c3n2)c(OC)c1", "viability, T/C": 39.9}, {"smiles": "C=C(F)C(=O)N1CCN(c2nc(OCC3CCCN3C)nc3c2CCN(c2cccc4cccc(Cl)c24)C3)CC1CC#N", "note": "(stereo unspecified) + CNC(=O)c1ccc(Nc2nc(OC3CCCC3)c3c(-c4ccc5nc(C)oc5c4)c[nH]c3n2)c(OC)c1", "viability, T/C": 50.6}, {"smiles": "CC(CO)NC(=O)c1cc(-c2ccc(Cl)cc2)nn(-c2cnn(C)c2)c1=O", "note": "(stereo unspecified) + CNC(=O)c1ccc(Nc2nc(OC3CCCC3)c3c(-c4ccc5nc(C)oc5c4)c[nH]c3n2)c(OC)c1", "viability, T/C": 51.3}, {"smiles": "CC(Nc1ccc2c(c1)OCCn1cc(N3C(=O)OCC3C(F)F)nc1-2)C(N)=O", "note": "(stereo unspecified) + CNC(=O)c1ccc(Nc2nc(OC3CCCC3)c3c(-c4ccc5nc(C)oc5c4)c[nH]c3n2)c(OC)c1", "viability, T/C": 13.5}]}]}
